Assays:
[1] = test system: isolated guinea pig myocytes; assay: Intercellular conductance Gj (GJIC), double patch clamp of cardiomyocyte pairs; assay type: cell-based; settings: 10^−8 M
Protocol: Cell preparation: Cells were isolated from guinea pig hearts by perfusion with collagenase according to the Langendorf method. In brief, guinea pigs were heparinised with an intraperitoneal injection of heparin (1000 IU/kg). After 30 minutes the animal was sacrificed by a blow to the neck followed by cutting the spine at the neck. The chest was opened and the aorta cannulated. Then the cannula was fixed to the aorta by a ligature, exised and perfused with Tyrodes solution for a couple of minutes. The Tyrodes solution had the following composition in mM: Na^+ 135.33, K^+ 4, Cl^− 145, PO4^− 0.33, Mg^2+ 1, Ca^2+ 2, Hepes 10, Glucose 10, pH 7.4. All perfusion media were bubled by 100% oxygen. […]. Then the heart was perfused with high K^+ solution with 0.6 mg/ml collagenase, this was done for 10-15 minutes judged from the apperance of the heart. The atria were cut off, the ventricles minced, whereafter the pieces were stirred in the collagenase solution by gently bubbling with 100% oxygen. […]
Where Ip,pulse and Ip,rest represent the current in the passive cell during the pulse and before the pulse respectively, and Up and Ua represent the voltage of the passive and active cell. […] However, the change in Gj value to a standardized intervention like a drug can be analysed by comparing the relative changes in Gj.

[2] = test system: ROS 17/2.8 cells; assay: Intercellular calcium wave propagation in ROS 17/2.8 cells; assay type: cell-based, rat; settings: 10^−8 M, 10 minutes; 48 hours hypoxia 3-6% O2 (2.2 cells before)
Protocol: ROS 17/2.8 cells: Cells were cultured in 100 mm dishes at 37° C. with 5% CO2 and medium change every 2-3 days. ROS medium (all reagents obtained from Life Technologies) MEM (Cat.No. 31095) supplemented with 10% heat-inactivated calf serum (Cat.No. 16170), 1% NEAA (Cat.No. 11140), 1% Sodium Pyruvate (Cat.No. 11360), 1% L-Glutamine (Cat.No. 25030) and 0.1% Penicillin/Streptomycin (Cat.No. 15140). For video imaging experiments, cells were plated on coverslips at 2-3×10^5 cells/coverslip and cultured for 2-3 days before use.
The cells cultured on coverslips were loaded with 5 μM fura-2-AM (Molecular Probes, Cat.No. F-1221), for 30 minutes at 37° C., and incubated in fresh medium for 20 minutes. Coverslips were then affixed to a PDMI-2 culture chamber (Medical Systems Corp.), maintained at 37° C. with superfused CO2, on a Zeiss Axiovert microscope. Intercellular calcium waves were induced by mechanical stimulation of a single cell using a borosilicate glass micro pipette affixed to an Eppendorf 5171 micromanipulator. Imaging was performed using a MetaMorph imaging system (Universal Imaging). The excitation light (340 and 380 nm) was provided by a monochromator (T.I.L.L. Photonics GmbH). Images were acquired with an intensified CCD camera (Dage MTI) and digitized with a Matrox MVP image processing board. […]

Ac-D-Tyr-D-Pro-D-4Hyp-Gly-D-Ala-Gly-NH2 [Compound 2]
time of stimulation until steady-state level of Gj [1]: about 400 seconds | average number of cells in the calcium wave [2]: 5.4 cells

— US7250397B2, “Antiarrhythmic peptides” (Zealand Pharma A/S, priority 2000, dated 2007)
